According to patent publication US11725011B2, “Bicyclic urea kinase inhibitors and uses thereof” (The Broad Institute, Inc., priority 2016, dated 2023):

Legend:
Assay in all cases: KINOMEscan
Assay type in all cases: binding
Details in all cases: 1 uM
[1] = biological target: ULK2 (Homo sapiens (Human), UniProt Q8IYT8)
[2] = biological target: GCN2 (Kin.Dom.2, S808G) (Homo sapiens (Human), UniProt Q9P2K8, S808G)
[3] = biological target: JAK1 (JH1domain-catalytic) (Homo sapiens (Human), UniProt P23458)
[4] = biological target: LRRK2 (Homo sapiens (Human), UniProt Q5S007)
[5] = biological target: PRKD1 (Homo sapiens (Human), UniProt Q15139)
[6] = biological target: ABL1 (F317L)-nonphosphorylated (Homo sapiens (Human), UniProt P00519, F317L)
[7] = biological target: FLT3 (D835H) (Homo sapiens (Human), UniProt P36888, D835H)
[8] = biological target: LZK (Homo sapiens (Human), UniProt O43283)
[9] = biological target: S6K1 (Homo sapiens (Human), UniProt P23443)
[10] = biological target: AURKA (Homo sapiens (Human), UniProt O14965)
[11] = biological target: PIK3CA (E545A) (Homo sapiens (Human), UniProt P42336, E545A)
[12] = biological target: QSK (Homo sapiens (Human), UniProt Q9Y2K2)
[13] = biological target: ABL1-phosphorylated (Homo sapiens (Human), UniProt P00519)
Sequence of ABL1-phosphorylated (P00519 whole entry): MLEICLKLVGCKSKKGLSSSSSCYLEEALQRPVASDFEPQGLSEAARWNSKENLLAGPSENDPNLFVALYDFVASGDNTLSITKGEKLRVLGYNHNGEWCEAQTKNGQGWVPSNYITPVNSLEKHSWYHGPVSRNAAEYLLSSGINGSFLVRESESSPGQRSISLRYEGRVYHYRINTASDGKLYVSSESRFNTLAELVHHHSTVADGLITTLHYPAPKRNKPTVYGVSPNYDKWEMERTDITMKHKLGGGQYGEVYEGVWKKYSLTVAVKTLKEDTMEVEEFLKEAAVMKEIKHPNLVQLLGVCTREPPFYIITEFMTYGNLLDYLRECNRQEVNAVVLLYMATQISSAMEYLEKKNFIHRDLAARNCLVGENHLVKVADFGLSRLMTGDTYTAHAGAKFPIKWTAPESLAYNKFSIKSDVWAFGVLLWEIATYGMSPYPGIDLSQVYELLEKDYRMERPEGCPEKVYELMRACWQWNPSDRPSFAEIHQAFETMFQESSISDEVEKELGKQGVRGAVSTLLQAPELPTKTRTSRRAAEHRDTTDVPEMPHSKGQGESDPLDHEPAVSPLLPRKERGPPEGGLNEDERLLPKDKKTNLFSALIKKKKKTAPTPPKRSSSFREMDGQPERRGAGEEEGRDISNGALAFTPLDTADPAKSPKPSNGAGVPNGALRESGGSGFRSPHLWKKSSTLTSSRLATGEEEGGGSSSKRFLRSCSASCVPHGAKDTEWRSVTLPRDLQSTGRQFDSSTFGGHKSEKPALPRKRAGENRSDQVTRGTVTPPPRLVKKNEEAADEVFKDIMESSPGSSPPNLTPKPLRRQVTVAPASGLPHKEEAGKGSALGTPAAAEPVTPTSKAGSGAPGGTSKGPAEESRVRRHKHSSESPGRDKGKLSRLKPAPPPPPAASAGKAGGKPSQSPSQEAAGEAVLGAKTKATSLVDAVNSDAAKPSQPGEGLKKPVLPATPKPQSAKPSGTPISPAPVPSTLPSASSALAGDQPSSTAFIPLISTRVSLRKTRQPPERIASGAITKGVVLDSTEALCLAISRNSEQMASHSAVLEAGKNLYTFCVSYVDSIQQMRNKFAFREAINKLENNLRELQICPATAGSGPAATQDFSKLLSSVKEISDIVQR

Sequence of AURKA (O14965 whole entry): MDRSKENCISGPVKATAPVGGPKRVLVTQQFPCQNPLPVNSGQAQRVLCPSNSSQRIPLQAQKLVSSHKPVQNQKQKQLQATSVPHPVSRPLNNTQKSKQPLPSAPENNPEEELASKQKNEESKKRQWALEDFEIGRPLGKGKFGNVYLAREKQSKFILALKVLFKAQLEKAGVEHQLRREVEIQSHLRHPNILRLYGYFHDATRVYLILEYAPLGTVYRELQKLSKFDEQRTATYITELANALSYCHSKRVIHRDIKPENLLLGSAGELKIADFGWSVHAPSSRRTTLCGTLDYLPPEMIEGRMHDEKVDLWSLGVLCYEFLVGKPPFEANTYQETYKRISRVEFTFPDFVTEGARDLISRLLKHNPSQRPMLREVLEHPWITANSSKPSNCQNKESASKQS
Sequence of PIK3CA (E545A) (P42336 whole entry E545A): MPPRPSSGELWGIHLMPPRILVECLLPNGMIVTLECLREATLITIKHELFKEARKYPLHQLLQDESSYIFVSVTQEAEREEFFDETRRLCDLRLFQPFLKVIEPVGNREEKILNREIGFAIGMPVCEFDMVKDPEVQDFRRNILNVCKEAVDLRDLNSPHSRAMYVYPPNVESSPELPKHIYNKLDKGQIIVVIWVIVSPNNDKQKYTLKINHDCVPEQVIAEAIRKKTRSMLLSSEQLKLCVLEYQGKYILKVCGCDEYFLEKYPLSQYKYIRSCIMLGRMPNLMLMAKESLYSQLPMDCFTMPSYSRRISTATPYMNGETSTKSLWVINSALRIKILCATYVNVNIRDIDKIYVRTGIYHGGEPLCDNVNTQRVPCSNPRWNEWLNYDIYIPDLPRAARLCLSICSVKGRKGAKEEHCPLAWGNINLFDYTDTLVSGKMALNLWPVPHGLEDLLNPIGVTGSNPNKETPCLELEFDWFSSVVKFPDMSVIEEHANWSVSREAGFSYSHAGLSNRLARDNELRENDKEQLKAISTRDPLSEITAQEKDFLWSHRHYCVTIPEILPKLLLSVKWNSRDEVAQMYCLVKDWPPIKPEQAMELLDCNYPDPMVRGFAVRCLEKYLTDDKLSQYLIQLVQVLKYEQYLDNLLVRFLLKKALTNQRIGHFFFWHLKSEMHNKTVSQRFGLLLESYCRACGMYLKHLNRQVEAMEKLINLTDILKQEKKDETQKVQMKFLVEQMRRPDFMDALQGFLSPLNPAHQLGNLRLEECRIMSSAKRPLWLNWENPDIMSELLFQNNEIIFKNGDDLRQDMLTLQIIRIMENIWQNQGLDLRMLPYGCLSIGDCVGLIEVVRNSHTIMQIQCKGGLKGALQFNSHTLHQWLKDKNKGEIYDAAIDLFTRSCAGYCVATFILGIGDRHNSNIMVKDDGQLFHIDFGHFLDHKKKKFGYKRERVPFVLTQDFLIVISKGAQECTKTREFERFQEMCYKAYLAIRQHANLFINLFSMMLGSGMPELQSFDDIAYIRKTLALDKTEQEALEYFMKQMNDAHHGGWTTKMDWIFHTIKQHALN
Sequence of GCN2 (Kin.Dom.2, S808G) (Q9P2K8 590-1001 S808G): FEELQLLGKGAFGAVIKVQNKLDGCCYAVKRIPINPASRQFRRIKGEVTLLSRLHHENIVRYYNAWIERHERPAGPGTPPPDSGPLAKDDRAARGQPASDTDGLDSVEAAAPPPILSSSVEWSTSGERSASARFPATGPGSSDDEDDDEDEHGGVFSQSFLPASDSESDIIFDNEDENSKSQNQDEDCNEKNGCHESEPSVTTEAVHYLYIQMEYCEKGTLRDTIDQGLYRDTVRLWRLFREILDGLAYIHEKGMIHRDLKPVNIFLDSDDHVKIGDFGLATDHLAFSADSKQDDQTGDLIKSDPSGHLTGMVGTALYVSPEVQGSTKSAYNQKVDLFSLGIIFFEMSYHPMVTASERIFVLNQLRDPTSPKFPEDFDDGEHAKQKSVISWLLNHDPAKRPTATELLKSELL
Sequence of ABL1 (F317L)-nonphosphorylated (P00519 whole entry F317L): as the sequence (P00519 whole entry) above, with F317L counted along it
Sequence of PRKD1 (Q15139 whole entry): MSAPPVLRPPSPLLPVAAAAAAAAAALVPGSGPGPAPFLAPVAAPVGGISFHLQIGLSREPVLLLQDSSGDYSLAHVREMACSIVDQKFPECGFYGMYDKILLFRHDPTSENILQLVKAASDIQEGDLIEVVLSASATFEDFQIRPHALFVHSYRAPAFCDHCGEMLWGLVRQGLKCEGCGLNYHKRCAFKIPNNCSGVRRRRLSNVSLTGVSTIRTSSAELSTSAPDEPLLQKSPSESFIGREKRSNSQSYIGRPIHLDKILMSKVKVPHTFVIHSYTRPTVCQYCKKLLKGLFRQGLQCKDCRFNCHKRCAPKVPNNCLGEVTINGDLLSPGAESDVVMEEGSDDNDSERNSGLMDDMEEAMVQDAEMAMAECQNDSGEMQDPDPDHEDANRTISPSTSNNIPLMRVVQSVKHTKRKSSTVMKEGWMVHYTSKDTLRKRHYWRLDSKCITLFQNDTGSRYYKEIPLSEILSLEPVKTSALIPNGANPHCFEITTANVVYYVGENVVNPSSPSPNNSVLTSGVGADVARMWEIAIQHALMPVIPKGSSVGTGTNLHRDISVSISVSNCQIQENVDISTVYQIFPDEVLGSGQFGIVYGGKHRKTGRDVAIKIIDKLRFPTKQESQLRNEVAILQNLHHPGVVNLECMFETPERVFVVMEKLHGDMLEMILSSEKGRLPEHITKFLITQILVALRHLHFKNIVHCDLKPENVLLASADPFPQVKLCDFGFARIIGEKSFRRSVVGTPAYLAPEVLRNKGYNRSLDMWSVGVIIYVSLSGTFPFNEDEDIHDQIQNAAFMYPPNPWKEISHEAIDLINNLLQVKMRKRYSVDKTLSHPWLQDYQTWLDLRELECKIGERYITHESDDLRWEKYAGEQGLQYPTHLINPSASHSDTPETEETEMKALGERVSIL
Sequence of S6K1 (P23443 whole entry): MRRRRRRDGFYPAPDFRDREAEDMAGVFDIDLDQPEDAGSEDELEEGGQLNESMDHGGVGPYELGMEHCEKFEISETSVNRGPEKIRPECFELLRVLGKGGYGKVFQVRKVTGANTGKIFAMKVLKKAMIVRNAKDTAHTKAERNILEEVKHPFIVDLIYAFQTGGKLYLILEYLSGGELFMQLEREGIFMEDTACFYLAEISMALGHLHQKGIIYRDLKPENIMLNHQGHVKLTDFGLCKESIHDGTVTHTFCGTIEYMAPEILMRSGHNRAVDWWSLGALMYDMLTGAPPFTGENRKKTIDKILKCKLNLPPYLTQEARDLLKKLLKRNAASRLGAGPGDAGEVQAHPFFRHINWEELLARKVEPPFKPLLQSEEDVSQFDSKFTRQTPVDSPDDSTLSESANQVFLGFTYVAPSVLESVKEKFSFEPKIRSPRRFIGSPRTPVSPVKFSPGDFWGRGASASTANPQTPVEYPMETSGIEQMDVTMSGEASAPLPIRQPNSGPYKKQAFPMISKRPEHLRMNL
Sequence of JAK1 (JH1domain-catalytic) (P23458 875-1153): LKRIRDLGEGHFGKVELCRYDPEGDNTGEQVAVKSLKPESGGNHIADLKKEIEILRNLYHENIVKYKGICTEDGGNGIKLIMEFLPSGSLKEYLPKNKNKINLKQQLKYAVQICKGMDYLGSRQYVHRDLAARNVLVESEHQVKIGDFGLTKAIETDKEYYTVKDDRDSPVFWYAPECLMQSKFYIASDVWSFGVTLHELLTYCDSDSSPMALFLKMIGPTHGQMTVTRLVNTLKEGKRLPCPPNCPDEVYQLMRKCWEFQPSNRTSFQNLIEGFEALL

In the case of COc1ccc(N2C(=O)N(c3c(C)cccc3C)Cc3cnc(Nc4ccc(N5CCN(C)CC5)cc4)nc32)c(OC)c1 [HG-11-136-01], the “KINOMEscan ULK2” value [1] is reported as 2.2, the “KINOMEscan GCN2 (Kin.Dom.2, S808G)” value [2] is reported as 0.75 and the “KINOMEscan JAK1 (JH1domain-catalytic)” value [3] is reported as 57. The “KINOMEscan LRRK2” value [4] was 21, the “KINOMEscan PRKD1” value [5] was 3.6 and the “KINOMEscan ABL1 (F317L)-nonphosphorylated” value [6] was 0. The “KINOMEscan FLT3 (D835H)” value [7] was 16, the “KINOMEscan LZK” value [8] was 4 and the “KINOMEscan S6K1” value [9] was 72. For the same compound, the “KINOMEscan AURKA” value [10] was 0, the “KINOMEscan PIK3CA (E545A)” value [11] was 69 and the “KINOMEscan QSK” value [12] was 0.25. The “KINOMEscan ABL1-phosphorylated” value [13] was 0.
